“And” between values parts separate entries of the source, which are not always exact repeats. Identical values can stand only once.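 96-well plates; 48 h exposure; 5 concentrations. Endpoints by linear interpolation between flanking doses. Not reached: highest tested concentration assigned. GI50 = concentration required for 50% inhibition of growth. TGI denotes the concentration required for complete inhibition of growth.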
Legend:
Assay in all cases: NCI tumour cell line growth inhibition, 48 h
[1] = test system: MDA-N
[2] = test system: NCI/ADR-RES ovarian
[3] = test system: K-562 leukemia
[4] = test system: HS 578T breast
[5] = test system: HOP-92 NSCLC
[6] = test system: MALME-3M melanoma
[7] = test system: OVCAR-4 ovarian
[8] = test system: T-47D breast

In the case of `COc1ccccc1NCC(=O)Nn1c(C)nc2ccc(S(=O)(=O)Nc3ccccc3OC)cc2c1=O`, the TGI [1] is reported as > 100 µM, the TGI [2] is reported as > 100 µM and the TGI [3] is reported as > 100 µM. The TGI [4] was > 100 µM, the TGI [5] was > 100 µM and the TGI [6] was > 100 µM. For the same molecule, the TGI [7] was > 100 µM.

For `CCCCNC(=S)Nc1nc(C(=O)NNC(=O)c2ccccc2)cs1`, the TGI [1] was 39.4 µM, the TGI [2] was 64.2 µM and the TGI [3] was > 100 µM. The TGI [5] was > 100 µM, the TGI [6] was 38.8 µM and the TGI [8] was 39.4 µM. The TGI [7] was > 100 µM.

`O=C1N[C@@H](COc2ccc(C=Nc3ccc(CCc4ccc(N=Cc5ccc(OC[C@@H]6COC(=O)N6)cc5)cc4)cc3)cc2)CO1` was tested, and the TGI [1] was > 100 µM, the TGI [2] was > 100 µM and the TGI [3] was > 100 µM. The TGI [4] was > 100 µM, the TGI [6] was > 100 µM and the TGI [8] was > 100 µM. For the same molecule, the TGI [7] was > 100 µM.

For `OC1c2ccccc2C(O)C2OC12` (stereo not drawn), the TGI [1] was > 100 µM, the TGI [2] was > 100 µM and the TGI [3] was > 100 µM. For the same molecule, the TGI [5] was > 100 µM, the TGI [6] was > 100 µM and the TGI [8] was > 100 µM. For the same molecule, the TGI [7] was > 100 µM.

In the case of `CC[C@H](C)C1=C(OC(C)=O)[N@+]2([O-])Oc3ccc(-c4c(OC(C)=O)c(OC(C)=O)c(-c5ccc(OC(C)=O)cc5)c(OC(C)=O)c4OC(C)=O)cc3O[C@]2([C@@H](C)CC)C(=O)N1OC(C)=O`, the TGI [1] is reported as > 50 µM, the TGI [2] is reported as > 50 µM and the TGI [3] is reported as > 50 µM. The TGI [6] was > 50 µM, the TGI [8] was 32 µM and the TGI [7] was 39.6 µM.

With `CN1C(=O)N(C)C2(CCN(CCCCCCF)CC2)C1=O` the TGI [1] was > 100 µM, the TGI [2] was > 100 µM and the TGI [3] was > 100 µM. For the same molecule, the TGI [6] was > 100 µM and the TGI [8] was > 100 µM.

Molecule `COc1ccc2[nH]c(O)c(/C=c3/cc4c(c(-c5ccc(F)cc5)n3)=Nc3ccccc3-4)c2c1` has a GI50 [2] of 2 µM, a TGI [2] of 5.63 µM and a GI50 [3] of 2.45 µM. The TGI [3] was 7.95 µM, the GI50 [4] was 2.02 µM and the TGI [4] was 7.48 µM. For the same molecule, the GI50 [5] was 13.6 µM, the TGI [5] was 41.3 µM and the GI50 [6] was 2.4 µM. The TGI [6] was 4.6 µM, the GI50 [8] was 2.06 µM and the TGI [8] was 6.94 µM. The GI50 [7] was 1.8 µM and the TGI [7] was 4.12 µM.

In the case of `CCC1(O)CC(OC2CC(N(C)C)C(OC3CC(O)C(OC4CCC(=O)C(C)O4)C(C)O3)C(C)O2)c2c(O)c3c(c(O)c2C1C(=O)OC)C(=O)c1cccc(O)c1C3=O` (stereo not drawn), the TGI [1] is reported as 0.107 µM and 0.0142 µM, the TGI [3] is reported as 0.0125 µM and the TGI [5] is reported as 0.763 µM and 2.17 µM. The GI50 [6] was 0.0106 µM, the TGI [6] was 0.0667 µM and 0.0267 µM and the TGI [7] was 0.21 µM.

In the case of `COc1cc2c(c(OC)c1OC)-c1ccc(SC)cc1C(=O)CC2`, the TGI [1] is reported as 27.2 µM, the TGI [4] is reported as > 100 µM and the TGI [5] is reported as > 100 µM. The TGI [6] was > 21.9 µM, the TGI [8] was > 100 µM and the TGI [7] was > 100 µM.

`CC(=O)O[C@H]1CC[C@H]2[C@@H]3CCC(C(C)=O)[C@H](C(=O)O)[C@H]3CC[C@]12C` (stereo partly drawn) was tested, and the TGI [2] was > 100 µM, the TGI [3] was > 100 µM and the TGI [4] was > 100 µM. The TGI [5] was > 100 µM, the TGI [6] was > 100 µM and the TGI [7] was > 100 µM.

With `CC1(C)C2CCC(N)(C2)C1O` (stereo not drawn) the TGI [1] was > 100 µM, the TGI [2] was > 100 µM and the TGI [3] was > 100 µM. For the same molecule, the TGI [5] was > 100 µM, the TGI [8] was > 100 µM and the TGI [7] was > 100 µM.

For `COC(=O)[C@H](CCSC)NC(=O)c1ccc(CNC(=O)/C(C)=C/c2ccccc2)cc1`, the TGI [1] was > 100 µM, the TGI [2] was 68.5 µM and the TGI [3] was > 100 µM. For the same molecule, the TGI [5] was 72.2 µM, the TGI [6] was 29.5 µM and the TGI [8] was > 100 µM. The TGI [7] was > 100 µM.

With `Cc1ccc2c(=O)c(-c3n[nH]c(=S)s3)c[nH]c2n1` the TGI [1] was > 100 µM, the TGI [2] was > 100 µM and the TGI [3] was > 100 µM. For the same molecule, the TGI [4] was > 100 µM, the TGI [6] was > 100 µM and the TGI [8] was > 100 µM. For the same molecule, the TGI [7] was > 100 µM.

For `COc1ccccc1N=C1SCCN1C(=S)Nc1ccc(S(=O)(=O)/N=C/N(C)C)cc1`, the TGI [1] was > 100 µM, the TGI [2] was > 100 µM and the TGI [3] was > 100 µM. For the same molecule, the TGI [5] was > 100 µM, the TGI [8] was > 100 µM and the TGI [7] was > 100 µM.

In the case of `O=[N+]([O-])c1cc(Cl)ccc1S(=O)(=O)N1CCCc2cc(Cl)ccc21`, the TGI [1] is reported as > 100 µM, the TGI [2] is reported as > 100 µM and the TGI [3] is reported as > 100 µM. The TGI [4] was > 100 µM, the TGI [5] was > 100 µM and the TGI [6] was > 100 µM. The TGI [7] was > 100 µM.

In the case of `CC1=CC(=O)/C(=C/n2c(=S)[nH]c3ccccc32)C(=O)O1`, the TGI [1] is reported as > 100 µM, the TGI [2] is reported as > 100 µM and the TGI [3] is reported as > 100 µM. For the same molecule, the TGI [4] was > 100 µM, the TGI [5] was > 100 µM and the TGI [8] was > 100 µM. The TGI [7] was > 100 µM.

In the case of `C=CCC(SC)C1=C(C)C(=O)c2ccccc21` (stereo not drawn), the TGI [1] is reported as > 10 µM, the TGI [3] is reported as > 10 µM and the TGI [5] is reported as > 10 µM. For the same molecule, the TGI [6] was > 10 µM and the TGI [8] was > 10 µM.

`CSC1=C(C(=O)Nc2ccccc2)C(N)=NC1=O` was tested, and the TGI [1] was > 100 µM, the TGI [2] was > 100 µM and the TGI [3] was > 100 µM. The TGI [4] was > 100 µM, the TGI [6] was > 100 µM and the TGI [8] was > 100 µM. For the same molecule, the TGI [7] was > 100 µM.

For `CC(C)c1cccc(C(C)C)c1OS(=O)(=O)NC(=O)OC(C(F)(F)F)C(F)(F)F`, the TGI [1] was > 100 µM, the TGI [2] was > 100 µM and the TGI [3] was 66.6 µM. For the same molecule, the TGI [4] was > 100 µM, the TGI [5] was 59.9 µM and the TGI [6] was > 100 µM. For the same molecule, the TGI [7] was > 100 µM.

With `COc1ccc(N2C(=O)C3CC4=CC(=O)C[C@H]4[C@H]32)cc1` (stereo partly drawn) the TGI [1] was 82.1 µM, the TGI [2] was > 100 µM and the TGI [3] was > 100 µM. For the same molecule, the TGI [4] was > 100 µM, the TGI [8] was > 100 µM and the TGI [7] was > 100 µM.

In the case of `C=CCC(CNC(=O)OCc1ccccc1)OC(=O)OCc1ccccc1` (stereo not drawn), the TGI [1] is reported as > 100 µM, the TGI [2] is reported as > 100 µM and the TGI [3] is reported as > 100 µM. The TGI [4] was > 100 µM, the TGI [5] was > 100 µM and the TGI [8] was > 100 µM. For the same molecule, the TGI [7] was > 100 µM.

— PubChem BioAssay (NCI)
